In brackets after ≈: the same amount, converted by molar mass.
Legend:
[1] = test system: Staphylococcus aureus ATCC 43300; test: Broth microdilution MIC/MBC; settings: ATCC43300 / MRSA
[2] = test system: Pseudomonas aeruginosa ATCC 9027; test: Broth microdilution MIC/MBC; settings: ATCC9027
[3] = test system: Micrococcus luteus ATCC 10240; test: Broth microdilution MIC/MBC; settings: Micrococcus luteus, ATCC10240
[4] = test system: Escherichia coli ATCC 25922; test: Broth microdilution MIC/MBC; settings: ATCC25922
[5] = test system: Bacillus subtilis ATCC 6633; test: Broth microdilution MIC/MBC; settings: ATCC6633
Gram-positive bacteria = test: Broth microdilution, summary over reference Gram-positive bacteria; type: cell-based
Description: (§1) Procedures of in vitro antimicrobial assays are described in Supplementary Materials.
(§2) 2. Microbiology – in vitro antimicrobial activity assays […]
(§3) using the broth microdilution method according to the European Committee on Antimicrobial Susceptibility Testing (EUCAST) and Clinical and Laboratory Standards Institute guidelines against a panel of reference and clinical or saprophytic strains of mi croorganisms, including the Gram-positive bacteria: Staphylococcus aureus ATCC 43300 (Methi-cillin Resistant S. aureus – MRSA), Staphylococcus aureus ATCC 29213 (Methicillin Susceptible S. aureus – MSSA), Staph-ylococcus epidermidis ATCC 12228, Micrococcus luteus ATCC 10240, Bacillus subtilis ATCC 6633 and Bacillus cereus ATCC 10876), Gram-negative bacteria: Bordetella bronchiseptica ATCC 4617, Escherichia coli ATCC 25922, Klebsiella pneumoniae ATCC 13883, Proteus mirabilis ATCC 12453, Salmonella typhimurium ATCC 14028 and Pseudomonas aeruginosa ATCC 9027, and fungi belonging to yeasts: Candida albicans ATCC 10231, Candida albicans ATCC 2091, Candida parapsilosis ATCC 22019, Candida glabrata ATCC 90030 and Candida krusei ATCC 14243. The microorganisms belonging to ATCC originated from American Type Culture Collection, routinely used for the evaluation of antimicrobials. All the used microbial cultures were first subcultured on nutrient agar or Sabouraud agar at 35°C for 18-24 h or 30°C for 24-48 h for bacteria […]
(§4) The surface of Mueller-Hinton agar (for bacteria) and RPMI 1640 with MOPS (for fungi) were inoculated with the suspensions of bacterial or fungal species. Microbial suspensions were prepared in sterile saline with an optical density of McFarland standard scale 0.5. The samples containing the compounds were dissolved in dimethyl sulfoxide (DMSO).
(§5) Furthermore, the bacterial and fungal suspensions put onto the Petri dishes with solid media containing 2 mg/mL of the tested compounds followed were incubated at 37°C for 24h and 30°C for 48h for bacteria and fungi, respectively.
(§6) The inhibition of microbial growth was estimated comparing with a control culture prepared without any tested sam- […]
(§7) antifungal compounds, respectively.
(§8) Subsequently, MIC (Minimal Inhibitory Concentration) of the compounds was examined by the microdilution broth method, using their two-fold dilutions in Mueller-Hinton broth (for bacteria) and RPMI 1640 broth with MOPS (for fungi) prepared in the 96-well polystyrene plates. The final concentrations of the compounds ranged from 1000 to 0.488 µg/mL. Microbial suspensions were prepared in 0.85% NaCl with an optical density of 0.5 McFarland standard. Next each bacterial or fungal suspension was added per each well containing broth and various concentrations of the exam-ined compounds. After incubation, the MIC was assessed spectrophotometrically as the lowest concentration of the […]
(§9) Appropriate DMSO, growth and sterile controls were carried out. The medium with no tested substances was used as a control The MBC (Minimal Bactericidal Concentration) and MFC (Minimal Fungicidal Concentration) are defined as the lowest concentration of the compounds that is required to kill a particular bacterial or fungal species. The MBC/MFC was determined by removing the culture used for the MIC determination from each well and spotted onto the appro-priate agar medium. The plates were incubated under appropriate conditions for bacteria and fungi. The lowest com-pounds concentration with no visible growth observed was assessed as a bactericidal/fungicidal concentration. All the experiments were repeated three times and the representative data are presented.
(§10) 1. European Committee for Antimicrobial Susceptibility Testing (EUCAST) Determination of minimum inhibitory con-centrations (MICs) of antibacterial agents by broth dilution. EUCAST discussion document E. Dis 5.1. Clin. Microbiol.
(§11) 2. Clinical and Laboratory Standards Institute. Reference method for broth dilution antifungal susceptibility testing of […]

[6] = test system: Staphylococcus aureus ATCC 29213; test: Broth microdilution MIC/MBC; settings: ATCC29213
[7] = test system: Klebsiella pneumoniae ATCC 13883; test: Broth microdilution MIC/MBC; settings: ATCC13883
[8] = test system: Salmonella typhimurium ATCC 14028; test: Broth microdilution MIC/MBC; settings: Salmonella enterica
[9] = test system: Proteus mirabilis ATCC 12453; test: Broth microdilution MIC/MBC; settings: ATCC12453
[10] = test system: Staphylococcus aureus ATCC 25923; test: Broth microdilution MIC/MBC; settings: Staphylococcus aureus, ATCC25923
[11] = test system: Candida albicans ATCC 2091; test: Broth microdilution MIC/MFC; type: cell-based; settings: ATCC2091, read-out: MIC
Description: as §1, §2, §3, §4, §5, §6, §7, §8, §9, §10, §11

[12] = test system: Candida parapsilosis ATCC 22019; test: Broth microdilution MIC/MFC; type: cell-based; settings: Lodderomyces parapsilosis; for MIC: ATCC22019, read-out: MIC
Description: as §1, §2, §3, §4, §5, §6, §7, §8, §9, §10, §11

[13] = test system: Candida krusei ATCC 14243; test: Broth microdilution MIC/MFC; type: cell-based; settings: Pichia kudriavzevii, ATCC14243, read-out: MIC
Description: as §1, §2, §3, §4, §5, §6, §7, §8, §9, §10, §11

[14] = test system: Candida albicans ATCC 10231; test: Broth microdilution MIC/MFC; type: cell-based; settings: ATCC10231, read-out: MIC
Description: as §1, §2, §3, §4, §5, §6, §7, §8, §9, §10, §11

[15] = test system: Candida glabrata ATCC 90030; test: Broth microdilution MIC/MFC; type: cell-based; settings: Nakaseomyces glabratus, ATCC90030, read-out: MIC
Description: as §1, §2, §3, §4, §5, §6, §7, §8, §9, §10, §11

[16] = test system: Staphylococcus epidermidis ATCC 12228; test: Broth microdilution MIC/MBC; settings: ATCC12228
[17] = test system: Bordetella bronchiseptica ATCC 4617; test: Broth microdilution MIC/MBC; settings: ATCC4617
[18] = test system: Bacillus cereus ATCC 10876; test: Broth microdilution MIC/MBC; settings: Bacillus cereus, ATCC10876

SMILES	MIC [1]	MIC [2]	MBC [3]	MIC [3]	MIC [4]	MBC [5]	MIC [5]	MIC [6]	MIC [7]	MIC [8]	MIC [9]	MIC [10]	MIC [11]	MIC [12]	MIC [13]	MIC [14]	MIC [15]	MBC [16]	MIC [16]	MIC [17]	further results
NNC(=O)c1cccc(I)c1 [Compound 5, 3-iodobenzohydrazide]	> 1000 µg/mL	> 1000 µg/mL	> 1000 µg/mL	1000 µg/mL (≈ 3.82 mM)	> 1000 µg/mL	> 1000 µg/mL	1000 µg/mL (≈ 3.82 mM)	> 1000 µg/mL	> 1000 µg/mL	> 1000 µg/mL	> 1000 µg/mL	> 1000 µg/mL	> 1000 µg/mL	> 1000 µg/mL	> 1000 µg/mL	> 1000 µg/mL	> 1000 µg/mL	> 1000 µg/mL	1000 µg/mL (≈ 3.82 mM)	> 1000 µg/mL	MIC (Gram-positive bacteria): 31.2 to 1000 µg/mL (≈ 0.119 to 3.82 mM); MIC [18]: > 1000 µg/mL; melting point: 134 to 140 °C
NNC(=O)c1ccc(I)cc1 [Compound 6, 4-iodobenzohydrazide]	> 1000 µg/mL	> 1000 µg/mL	> 1000 µg/mL	500 µg/mL (≈ 1.91 mM)	> 1000 µg/mL	> 1000 µg/mL	1000 µg/mL (≈ 3.82 mM)	> 1000 µg/mL	> 1000 µg/mL	> 1000 µg/mL	> 1000 µg/mL	> 1000 µg/mL	> 1000 µg/mL	250 µg/mL (≈ 0.954 mM)	> 1000 µg/mL	> 1000 µg/mL	> 1000 µg/mL	> 1000 µg/mL	1000 µg/mL (≈ 3.82 mM)	> 1000 µg/mL	MFC ([12]; ATCC22019, read-out: MFC): > 1000 µg/mL; MIC [18]: > 1000 µg/mL; melting point: 161 to 162 °C
O=C(N/N=C/c1cccc([N+](=O)[O-])c1O)c1cccc(I)c1 [Compound 15, N-[(2-hydroxy-3-nitrophenyl)methylidene]-3-iodobenzohydrazide]	1000 µg/mL (≈ 2.43 mM)	> 1000 µg/mL	125 µg/mL (≈ 0.304 mM)	31.2 µg/mL (≈ 0.076 mM)	> 1000 µg/mL	500 µg/mL (≈ 1.22 mM)	125 µg/mL (≈ 0.304 mM)	250 µg/mL (≈ 0.608 mM)	> 1000 µg/mL	> 1000 µg/mL	> 1000 µg/mL	250 µg/mL (≈ 0.608 mM)	> 1000 µg/mL	> 1000 µg/mL	> 1000 µg/mL	> 1000 µg/mL	> 1000 µg/mL	125 µg/mL (≈ 0.304 mM)	31.2 µg/mL (≈ 0.076 mM)	> 1000 µg/mL	MBC [1]: > 1000 µg/mL; MIC (Gram-positive bacteria): 31.2 to 500 µg/mL (≈ 0.076 to 1.22 mM); MBC [6]: > 1000 µg/mL; MBC [10]: > 1000 µg/mL; MBC [18]: 250 µg/mL (≈ 0.608 mM); MIC [18]: 125 µg/mL (≈ 0.304 mM); melting point: 190 to 199 °C

Source: PMC11356900, “Synthesis, Structural Properties and Biological Activities of Novel Hydrazones of 2-, 3-, 4-Iodobenzoic Acid” (Molecules, 2024)
